In patent US10246453B2, “Benzenesulfonamide compounds and their use as therapeutic agents” (Xenon Pharmaceuticals Inc., priority 2016, dated 2019):
Structures can show the parent of a compound that is named as a salt.

Legend:
NaV1.6 [1] = biological target: T1, NaV1.6 (Homo sapiens (Human), UniProt Q9UQD0); test: Sodium Influx Assay (Flux), NaV1.6; settings: read-out: Flux NaV1.6 IC50; Trex HEK293 cells, ANG2 dye; arithmetic mean
NaV1.1 = NaV1.1 (Homo sapiens (Human), UniProt P35498); test: Sodium Influx Assay (Flux), NaV1.1; assay type: cell-based; settings: Trex HEK293 cells, ANG2 dye; arithmetic mean
NaV1.5 = NaV1.5 (Homo sapiens (Human), UniProt Q14524); test: Sodium Influx Assay (Flux), NaV1.5; settings: read-out: Flux NaV1.5 IC50; Trex HEK293 cells, ANG2 dye; arithmetic mean
Sequence of NaV1.5 (Q14524 other isoform, or with tags, fused parts or gaps): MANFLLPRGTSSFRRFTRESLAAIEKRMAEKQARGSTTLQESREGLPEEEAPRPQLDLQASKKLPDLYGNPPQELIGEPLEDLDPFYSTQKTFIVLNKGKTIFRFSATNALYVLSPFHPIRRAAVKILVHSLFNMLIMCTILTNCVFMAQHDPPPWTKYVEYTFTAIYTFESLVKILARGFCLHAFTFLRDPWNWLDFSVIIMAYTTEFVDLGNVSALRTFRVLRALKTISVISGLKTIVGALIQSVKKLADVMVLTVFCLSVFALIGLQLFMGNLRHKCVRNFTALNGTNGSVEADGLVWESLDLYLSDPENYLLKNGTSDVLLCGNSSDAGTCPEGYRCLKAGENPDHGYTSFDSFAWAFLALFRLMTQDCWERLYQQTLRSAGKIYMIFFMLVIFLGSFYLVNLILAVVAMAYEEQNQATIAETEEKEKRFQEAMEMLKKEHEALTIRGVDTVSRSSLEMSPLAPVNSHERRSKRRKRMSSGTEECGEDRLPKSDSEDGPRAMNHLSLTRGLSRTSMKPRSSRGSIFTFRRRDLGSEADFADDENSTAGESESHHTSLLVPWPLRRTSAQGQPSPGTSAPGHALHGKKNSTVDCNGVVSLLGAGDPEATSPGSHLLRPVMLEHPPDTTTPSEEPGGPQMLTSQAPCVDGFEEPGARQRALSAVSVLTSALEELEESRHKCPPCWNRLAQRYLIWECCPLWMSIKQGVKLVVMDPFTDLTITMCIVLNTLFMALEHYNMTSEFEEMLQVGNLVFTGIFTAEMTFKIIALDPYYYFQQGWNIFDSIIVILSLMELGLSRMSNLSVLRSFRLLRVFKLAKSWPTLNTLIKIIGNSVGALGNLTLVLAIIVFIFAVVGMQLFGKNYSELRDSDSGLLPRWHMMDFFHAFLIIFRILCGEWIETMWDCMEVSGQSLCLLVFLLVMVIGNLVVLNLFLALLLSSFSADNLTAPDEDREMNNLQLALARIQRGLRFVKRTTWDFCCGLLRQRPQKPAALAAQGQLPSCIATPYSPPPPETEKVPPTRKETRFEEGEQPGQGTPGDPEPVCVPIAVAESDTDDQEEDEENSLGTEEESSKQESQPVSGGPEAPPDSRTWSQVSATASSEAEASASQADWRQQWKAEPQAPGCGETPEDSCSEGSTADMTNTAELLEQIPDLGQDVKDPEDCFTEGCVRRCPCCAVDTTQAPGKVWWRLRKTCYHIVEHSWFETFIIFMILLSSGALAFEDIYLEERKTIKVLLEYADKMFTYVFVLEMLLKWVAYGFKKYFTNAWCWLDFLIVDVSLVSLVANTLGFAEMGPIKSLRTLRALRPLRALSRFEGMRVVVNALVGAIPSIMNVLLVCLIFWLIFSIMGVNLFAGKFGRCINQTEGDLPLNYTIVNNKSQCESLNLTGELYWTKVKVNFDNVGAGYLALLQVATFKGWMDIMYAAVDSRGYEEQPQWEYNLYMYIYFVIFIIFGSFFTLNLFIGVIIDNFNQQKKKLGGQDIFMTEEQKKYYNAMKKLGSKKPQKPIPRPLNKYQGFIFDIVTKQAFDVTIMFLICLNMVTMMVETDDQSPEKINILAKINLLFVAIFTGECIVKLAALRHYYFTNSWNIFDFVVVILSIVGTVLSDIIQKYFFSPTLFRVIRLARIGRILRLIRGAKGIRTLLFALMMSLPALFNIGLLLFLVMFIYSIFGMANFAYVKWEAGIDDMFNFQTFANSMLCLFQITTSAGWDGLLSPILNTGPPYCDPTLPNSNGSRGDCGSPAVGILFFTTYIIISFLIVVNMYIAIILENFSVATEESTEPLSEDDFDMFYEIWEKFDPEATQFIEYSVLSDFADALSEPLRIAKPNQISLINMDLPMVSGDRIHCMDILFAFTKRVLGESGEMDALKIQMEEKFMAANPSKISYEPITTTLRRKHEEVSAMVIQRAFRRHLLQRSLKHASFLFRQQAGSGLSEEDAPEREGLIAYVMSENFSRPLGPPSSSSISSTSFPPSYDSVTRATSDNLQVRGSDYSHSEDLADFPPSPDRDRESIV

NaV1.6 [2] = biological target: T1, NaV1.6; test: Electrophysiological Assay (EP), patch voltage clamp, NaV1.6; assay type: cell-based; settings: HEK-293 cells, whole-cell patch clamp, inactivated state; arithmetic mean
From the text: Patch voltage clamp electrophysiology allows for the direct measurement and quantification of block of voltage-gated sodium channels (Nay's), and allows the determination of the time-and voltage-dependence of block which has been interpreted as differential binding to the resting, open, and inactivated states of the sodium channel (Hille, B., Journal of General Physiology (1977), 69: 497-515).
NaV1.1, NaV1.5 and NaV1.6 cDNAs (NM_001165964 (SCN1A), NM_000335 (SCN5A) and NM_014191 (SCN8A), respectively) were stably expressed in HEK-293 cells.
Sodium currents were measured using the patch clamp technique in the whole-cell configuration using either a PatchXpress automated voltage clamp or manually using an Axopatch 200B (Axon Instruments) or Model 2400 (A-M systems) amplifier.
The manual voltage clamp protocol was as follows: Borosilicate glass micropipettes were fire-polished to a tip diameter yielding a resistance of 2-4 Mohms in the working solutions. […] In some studies, the external sodium was reduced by equimolar replacement with choline. Osmolarity in the CsF internal and NaCl external solutions was adjusted to 300 mOsm/kg and 310 mOsm/kg with glucose, respectively. All recordings were performed at ambient temperature in a bath chamber with a volume of 150 μL. Control sodium currents were measured in 0.5% DMSO. Controls and representative compounds of the invention were applied to the recording chamber through a 4-pinch or 8-pinch valve bath perfusion system manufactured by ALA Scientific Instruments.
Currents were recorded at 40 kHz sampling frequency, filtered at […], and stored using a Digidata-1322A analogue/digital interface with the pClamp software (Axon Instruments). Series resistance compensation was applied (60-80%). […] All statistics in this study are given as mean±SD.
The membrane potential was maintained at a voltage where inactivation of the channel is complete. The voltage is then stepped back to a very negative (Vhold=−150 mV) voltage for 20 ms and then a test pulse is applied to quantify the compound block. The 20 ms brief repolarization was long enough for compound-free channels to completely recover from fast inactivation, but the compound-bound channels recovered more slowly such that negligible recovery could occur during this interval. The percent decrease in sodium current following wash-on of compound was taken as the percent block of sodium channels.

T1 sequence (Q9UQD0 whole entry): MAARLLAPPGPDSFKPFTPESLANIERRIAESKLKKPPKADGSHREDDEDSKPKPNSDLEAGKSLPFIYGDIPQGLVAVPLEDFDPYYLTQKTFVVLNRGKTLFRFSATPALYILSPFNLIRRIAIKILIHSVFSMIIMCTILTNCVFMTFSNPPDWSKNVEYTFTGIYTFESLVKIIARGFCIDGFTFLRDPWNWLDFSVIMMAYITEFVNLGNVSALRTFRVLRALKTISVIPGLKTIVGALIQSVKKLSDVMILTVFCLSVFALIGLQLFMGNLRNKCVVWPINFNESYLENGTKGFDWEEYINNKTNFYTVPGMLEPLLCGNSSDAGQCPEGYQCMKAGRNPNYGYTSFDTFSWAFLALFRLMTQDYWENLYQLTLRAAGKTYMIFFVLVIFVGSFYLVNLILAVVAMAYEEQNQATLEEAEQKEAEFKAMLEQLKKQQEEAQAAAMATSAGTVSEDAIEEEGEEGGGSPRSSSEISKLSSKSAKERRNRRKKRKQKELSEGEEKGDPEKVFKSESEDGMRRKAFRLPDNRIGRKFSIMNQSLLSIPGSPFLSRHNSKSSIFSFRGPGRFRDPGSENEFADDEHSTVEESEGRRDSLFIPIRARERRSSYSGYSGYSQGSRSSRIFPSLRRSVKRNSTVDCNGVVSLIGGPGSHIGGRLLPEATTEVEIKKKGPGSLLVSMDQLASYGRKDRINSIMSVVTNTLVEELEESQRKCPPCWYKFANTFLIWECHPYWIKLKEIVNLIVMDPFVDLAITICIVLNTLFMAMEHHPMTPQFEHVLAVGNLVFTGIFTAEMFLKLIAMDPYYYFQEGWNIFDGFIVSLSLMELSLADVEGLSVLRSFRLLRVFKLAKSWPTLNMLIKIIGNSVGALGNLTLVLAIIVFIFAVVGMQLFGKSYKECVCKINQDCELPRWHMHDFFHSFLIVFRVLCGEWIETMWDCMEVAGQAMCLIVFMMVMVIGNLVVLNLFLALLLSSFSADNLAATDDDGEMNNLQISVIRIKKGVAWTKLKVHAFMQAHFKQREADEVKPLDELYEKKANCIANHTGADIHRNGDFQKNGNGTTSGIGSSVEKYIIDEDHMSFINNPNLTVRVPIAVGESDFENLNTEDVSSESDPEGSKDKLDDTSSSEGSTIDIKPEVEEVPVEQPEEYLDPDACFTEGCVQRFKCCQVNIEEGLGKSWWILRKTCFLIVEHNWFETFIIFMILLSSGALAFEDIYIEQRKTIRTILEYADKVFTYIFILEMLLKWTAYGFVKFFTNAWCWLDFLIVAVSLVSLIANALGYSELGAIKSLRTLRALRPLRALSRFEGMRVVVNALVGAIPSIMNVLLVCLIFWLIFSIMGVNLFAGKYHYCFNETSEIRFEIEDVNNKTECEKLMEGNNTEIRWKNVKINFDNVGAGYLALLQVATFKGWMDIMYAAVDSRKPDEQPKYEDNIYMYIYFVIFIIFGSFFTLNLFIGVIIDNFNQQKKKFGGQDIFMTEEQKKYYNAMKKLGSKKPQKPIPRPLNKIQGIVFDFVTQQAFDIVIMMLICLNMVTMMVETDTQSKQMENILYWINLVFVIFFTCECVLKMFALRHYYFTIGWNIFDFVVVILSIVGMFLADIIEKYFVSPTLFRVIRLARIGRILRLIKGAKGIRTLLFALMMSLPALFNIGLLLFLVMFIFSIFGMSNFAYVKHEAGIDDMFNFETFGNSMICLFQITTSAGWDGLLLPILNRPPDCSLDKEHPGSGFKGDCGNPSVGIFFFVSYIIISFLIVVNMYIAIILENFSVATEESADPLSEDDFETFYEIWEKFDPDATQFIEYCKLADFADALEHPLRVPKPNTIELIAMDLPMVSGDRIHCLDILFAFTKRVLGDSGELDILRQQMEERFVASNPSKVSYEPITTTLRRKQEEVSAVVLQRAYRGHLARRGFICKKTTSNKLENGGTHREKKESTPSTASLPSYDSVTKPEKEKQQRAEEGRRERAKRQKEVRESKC

SMILES | IC50 (NaV1.6 [1]) [µM] | IC50 (NaV1.1) [µM] | IC50 (NaV1.5) [µM] | IC50 (NaV1.6 [2]) [µM]
CC1(C)CN(Cc2ccccc2)CCC1Oc1ccc(S(=O)(=O)Nc2ncns2)cc1Cl (stereo not shown) [Example 2, 4-((1-benzyl-3,3-dimethylpiperidin-4-yl)oxy)-3-chloro-N-(1,2,4-thiadiazol-5-yl)benzenesulfonamide 2,2,2-trifluoroacetate] | 1.36 | 22.5 | 6.33 | 0.381
O=S(=O)(Nc1ncns1)c1ccc(NC2CCN(Cc3ccccc3)C2)c(Cl)c1 (stereo not shown) [Example 26, 4-((1-benzylpyrrolidin-3-yl)amino)-3-chloro-N-(1,2,4-thiadiazol-5-yl)benzenesulfonamide trifluoroacetate] | 0.235 | 15 | > 30 | 0.164
CN(c1ccc(S(=O)(=O)Nc2ncns2)cc1Cl)[C@H]1CCN(Cc2cccc(C(F)F)c2)C1 [Example 31, (S)-3-chloro-4-((1-(3-(difluoromethyl)benzyl)pyrrolidin-3-yl)(methyl)amino)-N-(1,2,4-thiadiazol-5-yl)benzenesulfonamide] | 0.013 | 27.7 | > 30 | 0.029
O=S(=O)(Nc1ncns1)c1ccc(NC2CCN(Cc3ccccc3)CC2)c(Cl)c1 [Example 46, 4-((1-benzylpiperidin-4-yl)amino)-3-chloro-N-(1,2,4-thiadiazol-5-yl)benzenesulfonamide 2,2,2-trifluoroacetate] | 0.731 | 4.13 | > 30 | 0.278
O=S(=O)(Nc1nccs1)c1cc(Cl)c(OC2CCN(Cc3ccccc3)CC2)cc1F [Example 47, 4-((1-benzylpiperidin-4-yl)oxy)-5-chloro-2-fluoro-N-(thiazol-2-yl)benzenesulfonamide 2,2,2-trifluoroacetate] | 0.943 | 12.3 | 15.9 | 0.479
C[C@H](c1ccccc1)N1CCC(Oc2ccc(S(=O)(=O)Nc3nccs3)cc2Cl)CC1 [Example 55, (R)-3-chloro-4-((1-(1-phenylethyl)piperidin-4-yl)oxy)-N-(thiazol-2-yl)benzenesulfonamide 2,2,2-trifluoroacetate] | 0.187 | – | – | 0.032
O=S(=O)(Nc1ncns1)c1ccc(N[C@@H]2CCN(Cc3ccccc3)C2)c(Cl)c1 [Example 66, (R)-4-((1-benzylpyrrolidin-3-yl)amino)-3-chloro-N-(1,2,4-thiadiazol-5-yl)benzenesulfonamide 2,2,2-trifluoroacetate] | 0.148 | 5.51 | > 30 | 0.144
O=S(=O)(Nc1ncns1)c1ccc(N[C@H]2CCN(Cc3ccccc3)C2)c(Cl)c1 [Example 67, (S)-4-((1-benzylpyrrolidin-3-yl)amino)-3-chloro-N-(1,2,4-thiadiazol-5-yl)benzenesulfonamide 2,2,2-trifluoroacetate] | 0.31 | > 30 | > 30 | 0.453
O=S(=O)(Nc1cccc(F)n1)c1ccc(OC2CCN(Cc3ccccc3)CC2)c(Cl)c1 [Example 77, 4-((1-benzylpiperidin-4-yl)oxy)-3-chloro-N-(6-fluoropyridin-2-yl)benzenesulfonamide 2,2,2-trifluoroacetate] | 7.61 | 19 | 26.6 | 5.57
O=S(=O)(Nc1nccs1)c1ccc(OC2CCN(Cc3ccccc3)CC2)c(Cl)c1 [Example 95, 4-(1-benzylpiperidin-4-yloxy)-3-chloro-N-(thiazol-2-yl)benzenesulfonamide 2,2,2-trifluoroacetate] | 0.416 | – | 20.9 | 0.177
O=S(=O)(Nc1ncns1)c1ccc(O[C@H]2CCN(Cc3ccccc3)C2)c(Cl)c1 [Example 97, (S)-4-(1-benzylpyrrolidin-3-yloxy)-3-chloro-N-(1,2,4-thiadiazol-5-yl)benzenesulfonamide 2,2,2-trifluoroacetate] | 1.45 | > 30 | > 30 | 2.94
Cc1cc(S(=O)(=O)Nc2cscn2)c(F)cc1N(C)[C@H]1CCN(Cc2ccccc2)C1 [Example 101, (S)-4-((1-benzylpyrrolidin-3-yl)(methyl)amino)-2-fluoro-5-methyl-N-(thiazol-4-yl)benzenesulfonamide formate] | 0.272 | – | – | 0.054
CN(c1cc(F)c(S(=O)(=O)Nc2cscn2)cc1Cl)[C@H]1CCN(Cc2cccc(N3CCC3)n2)C1 [Example 317, (S)-4-((1-((6-(azetidin-1-yl)pyridin-2-yl)methyl)pyrrolidin-3-yl)(methyl)amino)-5-chloro-2-fluoro-N-(thiazol-4-yl)benzenesulfonamide 2,2,2-trifluoroacetate] | 1.03 | 9.89 | 8.12 | –
Cc1c(N(C)[C@H]2CCN(Cc3cc(F)ccc3F)C2)ccc(S(=O)(=O)Nc2cscn2)c1F [Example 322, (S)-4-((1-(2,5-difluorobenzyl)-pyrrolidin-3-yl)(methyl)amino)-2-fluoro-3-methyl-N-(thiazol-4-yl)benzenesulfonamide 2,2,2-trifluoroacetate] | 0.237 | 6.02 | 7.35 | –
Cc1c(N(C)[C@H]2CCN(Cc3cccc(C(F)F)c3)C2)ccc(S(=O)(=O)Nc2cscn2)c1F [Example 323, (S)-4-((1-(3-(difluoromethyl)benzyl)-pyrrolidin-3-yl)(methyl)amino)-2-fluoro-3-methyl-N-(thiazol-4-yl)benzenesulfonamide] | 0.209 | 12.3 | 13.6 | –
Cc1ccc(F)c(CN2CC[C@H](N(C)c3ccc(S(=O)(=O)Nc4cscn4)c(F)c3C)C2)n1 [Example 324, (S)-2-fluoro-4-((1-((3-fluoro-6-methylpyridin-2-yl)methyl)pyrrolidin-3-yl)(methyl)amino)-3-methyl-N-(thiazol-4-yl)benzenesulfonamide 2,2,2-trifluoroacetate] | 0.403 | > 30 | > 30 | –
CN(c1ccc(S(=O)(=O)Nc2ncns2)cc1Cl)[C@H]1CCN(Cc2cc(F)ccc2F)C1 [Example 325, (S)-3-chloro-4-((1-(2,5-difluorobenzyl)pyrrolidin-3-yl)(methyl)amino)-N-(1,2,4-thiadiazol-5-yl)benzenesulfonamide] | 0.26 | 23.2 | 27 | –
CN(c1ccc(S(=O)(=O)Nc2ncns2)cc1Cl)[C@H]1CCN(Cc2c(F)cccc2F)C1 [Example 326, (S)-3-chloro-4-((1-(2,6-difluorobenzyl)pyrrolidin-3-yl)(methyl)amino)-N-(1,2,4-thiadiazol-5-yl)benzenesulfonamide] | 0.303 | > 30 | 24.5 | –
CN(c1ccc(S(=O)(=O)Nc2cscn2)c(F)c1Cl)[C@H]1CCN(Cc2ccccc2)C1 [Example 328, (S)-4-((1-benzylpyrrolidin-3-yl)(methyl)amino)-3-chloro-2-fluoro-N-(thiazol-4-yl)benzenesulfonamide 2,2,2-trifluoroacetate] | 0.786 | 16.3 | 18.3 | –
Cc1cc(S(=O)(=O)Nc2cscn2)c(F)cc1N(C)[C@H]1CCN(Cc2cccc(F)c2F)C1 [compound 156, (S)-4-((1-(2,3-difluorobenzyl)pyrrolidin-3-yl)(methyl)amino)-2-fluoro-5-methyl-N-(thiazol-4-yl)benzenesulfonamide] | 0.298 | 7.8 | 10.3 | –
